The subject of one assay is primary neuronal cells. Briefly: Inhibition of Aβ1-42-induced neuron apoptosis (MTS cell viability). The assay is classed as cell-based, ICR mice. To be noted: different concentrations with Aβ1-42 (5 μM), 24 hours; compared to control treated with Aβ1-42 alone; FIG. 2. On the procedure: Specifically, primary neuronal cells derived from ICR mice were seeded in 96-wells at 5×10^5 cells per well and cultured for 6 days. Afterwards, the six compounds of Example 1 above were treated at different concentrations and Aβ1-42 (5 μM) was treated to induce neuron apoptosis, and the cells were treated together for 24 hours. Afterwards, a MTS solution was added to the medium and incubated for 2 hours. Cytotoxicity (cell viability) was measured using a microplate spectrophotometer (Bio-Tek Power Wave XS, Winooski, VT, USA), and absorbance was measured at 490 nm.
Next, the neuron apoptosis inhibition efficacy for the same concentration of CBDA, CBD, THCA and THC was evaluated using the same method as above. Memantine, known as an Alzheimer's treatment, was used as a positive control group.

Assay [1] concerns phosphorylated tau (p-Tau). Briefly: Western blotting of Tau/p-Tau in Aβ1-42-treated primary neuronal cells. The assay is classed as cell-based, ICR mice. To be noted: with Aβ1-42 (5 μM), 24 hours; compared to Aβ1-42 alone; FIG. 7. On the procedure: (§1) To conduct Western blotting, tissues were homogenized in radioimmunoprecipitation assay buffer (Cell Signaling) to acquire tissue lysates. Tissue protein concentrations were determined using the Bio-Rad protein assay (Bio-Rad, Hercules, CA, USA), and Western blot analysis was conducted using 80-120 μg of protein. Next, the Western blotting samples prepared using the proteins were separated using 12% SDS-PAGE and transferred to a polyvinylidene fluoride membrane (PVDF) (Merck Millipore, Burlington, MA, USA; 0.4 μm). The PVDF was blocked with tris-buffered saline including 5% bovine serum albumin and Tween-20, and incubated with primary antibodies overnight at 4° C. After primary antibody incubation, the samples were incubated with HRP-conjugated secondary antibody (Sigma; 1:5000) for 1 hour at room temperature, and immunodetection was conducted using an enhanced chemiluminescence detection kit (GE Healthcare, Chicago, IL, USA).
Specifically, primary neuronal cells derived from ICR mice were cultured for 6 days, and then treated with CBDA, THCA, THC, or CBN compounds while treating with Aβ1-42 (5 μM), and treated together for 24 hours. Next, to confirm the expression levels of Tau and phosphorylated Tau (p-Tau) in the cells, Western blotting was conducted using the method disclosed in Example 4 above.

The next assay relates to amyloid beta (Aβ). The experiment in a line: Western blotting of Aβ expression in Aβ1-42-treated primary neuronal cells. The assay is classed as cell-based, ICR mice. The following applies: with Aβ1-42 (5 μM), 24 hours; compared to Aβ1-42 alone; FIG. 5. The protocol:
Specifically, primary neuronal cells derived from ICR mice were cultured for 6 days, and then treated with CBDA, THCA, THC, or CBN compounds while treating with Aβ1-42 (5 μM), and treated together for 24 hours. Next, Western blotting was conducted to confirm the expression levels of APP (Amyloid Precursor Protein), polymeric Aβ, and oligomeric AB in the cells.
as §1

Assay [2] has as its system primary cortical neuron cells. The experiment in a line: Intracellular calcium concentration in neuronal cells (fluo-4 AM fluorescence imaging). The assay is classed as cell-based. To be noted: CBDA (6.25 μM), THCA (12.5 μM), THC (12.5 μM) with Aβ1-42 (5 μM), 24 hours; compared to Aβ1-42 alone; FIG. 8 and 9. The protocol:
Specifically, primary cortical neuron cells were seeded in 96-wells at 5×10^5 cells per well and cultured for 6 days. […] Next, to measure the concentration of calcium ions in neuronal cells by detecting Ca^2+ using fluorescence imaging, the cells were washed with PBS and treated with 10 μM Ca^2+ indicator fluo-4 AM (Thermo) for […]. The stained sections were washed with PBS, covered with Prolong Gold Antifide Reagent (Invitrogen, Carlsbad, CA, USA) including DAPI nuclear stain, and observed using a microscope (Carl Zeiss, Oberkochen, Germany). Fluo-4 AM fluorescence signal intensity was measured using the Image J analysis program (National Institute of Health, Bethesda, […], USA).

Structures are written as SMILES.

`CCCCCc1cc(O)c2c(c1)OC(C)(C)c1ccc(C)cc1-2` [CBN, 6,6,9-Trimethyl-3-pentyl-benzo[c]chromen-1-ol]: the “cell survival rate level” value in the assay on primary neuronal cells is reported as “significantly increased”. Moreover, the “phosphorylation level of p-Tau” value in assay [1] is listed as “not”. The “expression level of AB” value with amyloid beta (Aβ) is given as “significantly reduced”.

Consider `CCCCCc1cc(O)c2c(c1)OC(C)(C)[C@@H]1CCC(C)=C[C@@H]21` [THC, (6aR, 10aR)-delta-9-Tetrahydrocannabinol], for which the “cell survival rate level” value with primary neuronal cells is “significantly increased”. Moreover, in assay [1], the “expression level of p-Tau” value is reported as “significantly reduced” and the “phosphorylation level of p-Tau” value is “significantly reduced”. In addition, the “intracellular calcium ion concentration” value in assay [2] is recorded as “significantly reduced”. Moreover, the “expression level of AB” value in the assay with amyloid beta (Aβ) is “significantly reduced”.

Values taken from patent US20260000685A1, “PHARMACEUTICAL COMPOSITION FOR PREVENTING OR TREATING DEGENERATIVE BRAIN DISEASES, COMPRISING CANNABINOIDS AS ACTIVE INGREDIENT, AND USES THEREOF” (NEOCANNBIO CO., LTD., priority 2022, published 2026).
